The text below walks through data of patent publication US20040229810A1, “Gastrin compositions and formulations, and methods of use and preparation” (priority 2002, published 2004).

Where two headings read alike, the source gives them in different places. Where a SMILES comes first, the peptide text is derived from it. Where no end group is shown, it is not given here. [ ]: non-standard residue; d: D form. pGlu = O=C1CC[C@@H](C(=O)O)N1

One series is described as follows: in vivo. Conditions: male, cynomolgus monkey, iv.
In series [1] the test system is NOD mice with recent onset diabetes. Nature of the series: Modified vs unmodified gastrin in combination with GLP-1 in preventing diabetes progression in NOD mice with recent onset diabetes. The class given is in vivo. The note with it: in combination with GLP-1 (100 μg/kg/day); gastrin compound 3 μg/kg/day gastrin equivalent i.p. daily for 14 days; compared to GLP-1 with native gastrin (Compound B). An excerpt:
In this example, the effect of treatment by a combination of GLP-1 and unmodified gastrin and GLP-1 and modified gastrin compounds/conjugates were examined in NOD mice with recent onset diabetes, to determine whether administration of both GLP-1 and gastrin would prevent severe hyperglycemia as well as increase pancreatic insulin content in NOD mice with recent-onset diabetes. The GLP-1 used was GLP-1 which is the biologically active fragment of human/mouse GLP-1 (having residues at positions 7-36 compared to the precursor from which the fragment is processed; obtained from Bachem H6795). […]
Non-obese diabetic (NOD) female mice, ages 12-14 weeks, were monitored for development of onset of diabetes (fasting blood glucose >8.0 to 15 mmol/l), and within 48 hours after onset of symptoms, four groups of mice were each treated as follows: one group was treated with vehicle only; and the other group was administered 100 μg/kg/day of GLP-1, and the remaining groups were treated with combination of GLP-1 (100 μg/kg/day) and gastrin compound (3 μg/kg/day gastrin equivalent), each treatment administered via the intraperitoneal route daily.
Therapy was administered for 14 days. Animals were monitored weekly for fasting blood glucose (FBG) levels. FBG levels were measured at about 12 hours after food had been withdrawn, and 24 hours after the last peptide or vehicle injection. […]

The conditions of series [2]: cited from earlier work.

Description for in vivo: Male animals were used in the example. […] The dosing solutions for intravenous injection were administered as a single bolus dose via the saphenous vein at a dose volume of 1 mL/kg. A 0.2 mL saline flush was administered following dosing in order to ensure administration of the complete dose volume. The actual volume administered to each animal was based on the animal's most recent body weight.
Serial blood samples (approximately 0.5 ml per time point) were collected via the brachial or femoral vein at the following time points: 0 (pre-dose), 1, 3, 5, 10, 15, 30 minutes, 1, 2, and 4 hours post dose.
Each sample was collected into a tube containing EDTA and kept on wet ice pending centrifugation. The samples were centrifuged under refrigeration for a minimum of 10 minutes at 1, 500 g (RCF) and the resultant plasma was transferred into duplicate tubes and placed on dry ice. All samples were stored frozen for PK analysis as described below.
Gastrin in plasma samples was measured with a well established competitive radioimmunoassay for the quantitative determination of gastrin (Russell et al., Postgraduate Medical Journal 52:645, 1976). The antibody used in the assay was raised in rabbits against synthetic human gastrin I conjugated with carbodiimide to bovine serum albumin. The antigen was labeled with ^125I and the presence of the antigen:antibody reactions were detected using a gamma counter.
To calculate pharmacokinetic parameters, blood levels of gastrin at each time point for every animal were entered in to Graphpad Prism 3.0 (GraphPad Software, San Diego, Calif., USA,_www.graphpad.com).

Turning to `CC(C)C[C@H](NC(=O)[C@H](Cc1c[nH]c2ccccc12)NC(=O)CNC(=O)[C@H](Cc1ccc(O)cc1)NC(=O)[C@H](C)NC(=O)[C@H](CCC(=O)O)NC(=O)[C@H](CCC(=O)O)NC(=O)[C@H](CCC(=O)O)NC(=O)[C@H](CCC(=O)O)NC(=O)[C@H](CCC(=O)O)NC(=O)[C@H](CC(C)C)NC(=O)[C@H](Cc1c[nH]c2ccccc12)NC(=O)[C@@H]1CCCN1C(=O)CNC(=O)[C@@H]1CCC(=O)N1)C(=O)N[C@@H](CC(=O)O)C(=O)N[C@@H](Cc1ccccc1)C(N)=O` [Compound B] ([pGlu]GPWLEEEEEAYGWLDF-NH2), the AUC in the series “in vivo” (3 ug/kg) is 4.18 ng·h/mL; in “in vivo” (30 ug/kg), 42.1 ng·h/mL; in the series “in vivo” (cynomolgus, 10 ug/kg) it was 15.7 ng·h/mL. For the same molecule, the Cmax in “in vivo” (3 ug/kg) was 27 ng/mL; in “in vivo” (30 ug/kg), 268 ng/mL; in the series “in vivo” (cynomolgus, 10 ug/kg) it was 127 ng/mL. Further, the Tmax is 2 min in the series “in vivo” (3 ug/kg); 1 min in “in vivo” (30 ug/kg); 1 min in “in vivo” (cynomolgus, 10 ug/kg). In addition, the half-life in “in vivo” (3 ug/kg, t ½) is 5 min; in the series “in vivo” (30 ug/kg, plasma t1/2), 4 to 5 min; in “in vivo” (30 ug/kg, t ½), 5 min; in the series “in vivo” (cynomolgus, 10 ug/kg, t ½) it was 4 min.

Take “Compound E: gastrin peptide residues 2-17 of SEQ ID NO: 4 with N-terminal Cys residue, no linker (CGPWLEEEEEAYGWLDF; not fully specified (C-terminus); ends and bridges not checked)”: the “reducing blood glucose levels in diabetic animals” value in series [1] was “more effecting in reducing blood glucose levels”.

Turning to “Compound Q: human serum albumin conjugate of N-terminal Cys gastrin peptide residues 2-17 of SEQ ID NO: 4 with (GA)5 linker (GPWLEEEEEAYGWLDF; not fully specified (N-terminus, C-terminus); ends and bridges not checked; also: human serum albumin conjugate)”, the “reducing blood glucose levels in diabetic animals” value in series [1] is reported as “more effecting in reducing blood glucose levels”.

Turning to Gastrin-17, in series [2] (in vivo), the circulating half-life was 5 to 9 min.

For the molecule “gastrin-34 ([pGlu]LGPQGPPHLVADPSKKQGPWLEEEEEAYGWMDF-NH2; ends and bridges not checked; UniProt P01350 59-92, looked up)”, the circulating half-life entry in series [2] (background statement) is on record as “about 35 mins”.
